Source: patent publication US9266892B2, “Fused pyrazoles as FGFR inhibitors” (Incyte Corporation, priority 2012, dated 2016)

Columns and labels:
Format in all cases: biochemical
FGFR1 = target: T1, FGFR1 (Homo sapiens, UniProt P11362); assay: FGFR Enzymatic Assay (FRET peptide phosphorylation), FGFR1; conditions: FGFR1 0.02 nM, ATP 210 μM
T1 construct: purchased Millipore or Invitrogen
Procedure: (§1) The inhibitor potency of the Example compounds was measured in an enzyme assay that measures peptide phosphorylation using FRET measurements to detect product formation. Inhibitors were serially diluted in DMSO and a volume of 0.5 μL was transferred to the wells of a 384-well plate. For FGFR3, a 10 μL volume of FGFR3 enzyme (Millipore) diluted in assay buffer (50 mM HEPES, 10 mM MgCl2, 1 mM EGTA, 0.01% Tween-20, 5 mM DTT, pH 7.5) was added to the plate and pre-incubated for 5-10 minutes. Appropriate controls (enzyme blank and enzyme with no inhibitor) were included on the plate. The assay was initiated by the addition of a 10 μL solution containing biotinylated EQEDEPEGDYFEWLE peptide substrate (SEQ ID NO: 1) and ATP (final concentrations of 500 nM and 140 μM respectively) in assay buffer to the wells. The plate was incubated at 25° C. for 1 hr. The reactions were ended with the addition of 10 μL/well of quench solution (50 mM Tris, 150 mM NaCl, 0.5 mg/mL BSA, pH˜7.8, 30 mM EDTA with Perkin Elmer Lance Detection Reagents at 3.75 nM Eu-antibody PY20 and 180 nM APC-Streptavidin). The plate was allowed to equilibrate for 1 hour before scanning the wells on a PheraStar plate reader (BMG Labtech). The enzymes were purchased from Millipore or Invitrogen.
(§2) FGFR1 and FGFR2 were measured under equivalent conditions with the following changes in enzyme and ATP concentrations: FGFR1, 0.02 nM and 210 μM, respectively and FGFR2, 0.01 nM and 100 μM, respectively.
(§3) GraphPad prism3 was used to analyze the data. The IC50 values were derived by fitting the data to the equation for a sigmoidal dose-response with a variable slope. Y=Bottom+(Top−Bottom)/(1+10^((Log IC50−X)*HillSlope)) where X is the logarithm of concentration and Y is the response.

FGFR2 = target: T2, FGFR2 (Homo sapiens, UniProt P21802); assay: FGFR Enzymatic Assay (FRET peptide phosphorylation), FGFR2; conditions: FGFR2 0.01 nM, ATP 100 μM
T2 construct: purchased Millipore or Invitrogen
T2 sequence (P21802 22-821): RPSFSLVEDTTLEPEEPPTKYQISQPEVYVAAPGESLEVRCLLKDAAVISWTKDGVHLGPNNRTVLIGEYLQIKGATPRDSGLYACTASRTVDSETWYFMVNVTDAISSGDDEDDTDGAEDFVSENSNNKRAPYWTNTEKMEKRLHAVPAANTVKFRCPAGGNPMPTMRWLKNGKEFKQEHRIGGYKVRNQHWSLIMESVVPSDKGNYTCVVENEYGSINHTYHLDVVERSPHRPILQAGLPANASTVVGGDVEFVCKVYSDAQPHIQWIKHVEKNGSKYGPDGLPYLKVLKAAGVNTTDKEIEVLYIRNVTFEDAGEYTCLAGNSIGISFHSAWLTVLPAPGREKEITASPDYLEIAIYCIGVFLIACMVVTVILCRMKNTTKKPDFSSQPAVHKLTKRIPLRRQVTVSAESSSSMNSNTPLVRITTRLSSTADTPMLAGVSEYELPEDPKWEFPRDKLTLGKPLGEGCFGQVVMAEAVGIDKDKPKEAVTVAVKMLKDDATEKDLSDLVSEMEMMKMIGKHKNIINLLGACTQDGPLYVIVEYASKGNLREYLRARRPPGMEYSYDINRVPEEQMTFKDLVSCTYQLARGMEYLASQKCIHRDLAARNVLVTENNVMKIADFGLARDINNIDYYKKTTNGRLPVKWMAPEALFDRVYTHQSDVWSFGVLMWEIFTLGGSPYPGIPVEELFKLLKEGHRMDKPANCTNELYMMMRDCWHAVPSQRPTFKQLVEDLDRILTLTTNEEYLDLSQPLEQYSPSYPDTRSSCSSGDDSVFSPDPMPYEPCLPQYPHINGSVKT
Procedure: as §1, §2, §3

FGFR3 = target: T3, FGFR3 (Homo sapiens, UniProt P22607); assay: FGFR Enzymatic Assay (FRET peptide phosphorylation), FGFR3; conditions: ATP 140 μM, 25° C. for 1 hr
T3 construct: purchased Millipore
T3 sequence (P22607 23-806): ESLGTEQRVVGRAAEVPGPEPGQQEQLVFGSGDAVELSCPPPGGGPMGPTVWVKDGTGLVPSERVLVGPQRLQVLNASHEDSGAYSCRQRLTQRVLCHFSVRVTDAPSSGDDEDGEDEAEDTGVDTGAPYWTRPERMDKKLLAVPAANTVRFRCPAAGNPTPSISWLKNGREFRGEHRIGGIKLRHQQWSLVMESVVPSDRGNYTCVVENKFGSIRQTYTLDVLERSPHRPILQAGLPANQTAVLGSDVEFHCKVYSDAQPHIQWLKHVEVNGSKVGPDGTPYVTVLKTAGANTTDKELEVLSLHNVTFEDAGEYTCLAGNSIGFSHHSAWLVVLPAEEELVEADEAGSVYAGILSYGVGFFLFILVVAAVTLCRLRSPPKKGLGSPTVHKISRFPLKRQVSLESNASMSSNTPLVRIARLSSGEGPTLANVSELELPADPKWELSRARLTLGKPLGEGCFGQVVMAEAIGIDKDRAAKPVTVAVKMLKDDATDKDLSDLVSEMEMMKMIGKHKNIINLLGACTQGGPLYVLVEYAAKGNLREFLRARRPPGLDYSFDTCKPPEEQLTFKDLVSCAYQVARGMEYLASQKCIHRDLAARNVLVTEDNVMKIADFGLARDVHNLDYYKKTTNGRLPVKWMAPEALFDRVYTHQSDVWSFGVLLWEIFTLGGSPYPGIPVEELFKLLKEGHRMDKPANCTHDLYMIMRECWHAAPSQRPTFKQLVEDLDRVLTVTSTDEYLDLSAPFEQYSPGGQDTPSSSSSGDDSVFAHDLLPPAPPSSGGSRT
Procedure: as §1, §3

T1 sequence (P11362 22-822): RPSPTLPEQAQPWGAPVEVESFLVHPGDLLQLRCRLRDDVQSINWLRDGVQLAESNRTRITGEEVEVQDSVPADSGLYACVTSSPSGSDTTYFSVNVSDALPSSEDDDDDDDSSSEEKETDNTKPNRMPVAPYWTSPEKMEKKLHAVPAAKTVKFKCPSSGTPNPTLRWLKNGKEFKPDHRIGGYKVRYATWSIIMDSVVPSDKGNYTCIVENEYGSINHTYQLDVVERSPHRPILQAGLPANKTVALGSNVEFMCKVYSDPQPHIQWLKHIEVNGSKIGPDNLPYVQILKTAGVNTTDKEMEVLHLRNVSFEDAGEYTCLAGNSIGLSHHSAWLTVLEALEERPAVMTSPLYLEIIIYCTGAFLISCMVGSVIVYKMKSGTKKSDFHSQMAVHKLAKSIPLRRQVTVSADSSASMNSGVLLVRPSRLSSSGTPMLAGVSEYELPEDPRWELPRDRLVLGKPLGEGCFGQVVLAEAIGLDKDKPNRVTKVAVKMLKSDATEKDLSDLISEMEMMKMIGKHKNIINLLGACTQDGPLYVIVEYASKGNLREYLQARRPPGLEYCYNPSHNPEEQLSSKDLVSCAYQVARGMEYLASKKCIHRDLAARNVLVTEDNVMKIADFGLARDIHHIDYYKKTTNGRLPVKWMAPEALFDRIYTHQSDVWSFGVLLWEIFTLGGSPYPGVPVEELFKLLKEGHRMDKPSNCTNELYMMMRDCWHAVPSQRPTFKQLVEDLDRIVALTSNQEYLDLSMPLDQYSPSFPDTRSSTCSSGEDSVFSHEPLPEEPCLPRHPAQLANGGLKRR

| IC50 (FGFR1) | IC50 (FGFR2) | IC50 (FGFR3) | Structure (SMILES) |
| --- | --- | --- | --- |
| < 100 nM | < 100 nM | < 100 nM | COc1cc(OC)c(Cl)c(-c2cc3[nH]nc(-c4cnn(CC(=O)NC5CC5)c4)c3cn2)c1Cl [Example 38, N-Cyclopropyl-2-{4-[6-(2,6-dichloro-3,5-dimethoxyphenyl)-1H-pyrazolo[4,3-c]pyridin-3-yl]-1H-pyrazol-1-yl}acetamide] |
| < 100 nM | < 100 nM | < 100 nM | COc1cc(OC)c(F)c(-c2ncc3c(-c4ccc5nccn5c4)n[nH]c3n2)c1F [Example 93, 6-(2,6-Difluoro-3,5-dimethoxyphenyl)-3-imidazo[1,2-a]pyridin-6-yl-1H-pyrazolo[3,4-d]pyrimidine] |
| < 100 nM | < 100 nM | < 100 nM | COc1cc(OC)c(F)c(-c2cc3[nH]nc(-c4ccc5c(c4)CN(C(C)CO)C5=O)c3cn2)c1F (stereo not drawn) [Example 63, 5-[6-(2,6-Difluoro-3,5-dimethoxyphenyl)-1H-pyrazolo[4,3-c]pyridin-3-yl]-2-(2-hydroxy-1-methylethyl)isoindolin-1-one] |
| < 100 nM | < 100 nM | < 100 nM | COc1cc(OC)c(F)c(-c2cc3[nH]nc(-c4ccc5c(c4)CN(CC(F)(F)F)C5=O)c3cn2)c1F [Example 60, 5-[6-(2,6-Difluoro-3,5-dimethoxyphenyl)-1H-pyrazolo[4,3-c]pyridin-3-yl]-2-(2,2,2-trifluoroethyl)isoindolin-1-one] |
| < 100 nM | < 100 nM | < 100 nM | COc1cc(OC)c(Cl)c(-c2cc3[nH]nc(-c4cnn(C[C@H](C)O)c4)c3cn2)c1Cl [Example 51, (2S)-1-{4-[6-(2,6-Dichloro-3,5-dimethoxyphenyl)-1H-pyrazolo[4,3-c]pyridin-3-yl]-1H-pyrazol-1-yl}propan-2-ol] |
| < 100 nM | < 100 nM | < 100 nM | COc1cc(OC)c(F)c(-c2ncc3c(-c4ccc5c(c4)CN(CC(C)O)C5=O)n[nH]c3n2)c1F (stereo not drawn) [Example 82, 5-[6-(2,6-Difluoro-3,5-dimethoxyphenyl)-1H-pyrazolo[3,4-d]pyrimidin-3-yl]-2-(2-hydroxypropyl)isoindolin-1-one] |
| < 100 nM | < 100 nM | < 100 nM | COc1cc(OC)c(Cl)c(-c2cc3[nH]nc(-c4ccc5c(c4)NC(=O)CO5)c3cn2)c1Cl [Example 30, 6-[6-(2,6-Dichloro-3,5-dimethoxyphenyl)-1H-pyrazolo[4,3-c]pyridin-3-yl]-2H-1,4-benzoxazin-3(4H)-one] |
| < 100 nM | < 100 nM | < 100 nM | COc1cc(OC)c(Cl)c(-c2cc3[nH]nc(-c4cnn(CC(=O)N5CCC(N(C)C)C5)c4)c3cn2)c1Cl (stereo not drawn) [Example 44, 1-({4-[6-(2,6-Dichloro-3,5-dimethoxyphenyl)-1H-pyrazolo[4,3-c]pyridin-3-yl]-1H-pyrazol-1-yl}acetyl)-N,N-dimethylpyrrolidin-3-amine] |
| < 100 nM | < 100 nM | < 100 nM | COc1cc(OC)c(F)c(-c2cc3[nH]nc(-c4cnn(C)c4)c3cn2)c1F [Example 91, 6-(2,6-Difluoro-3,5-dimethoxyphenyl)-3-(1-methyl-1H-pyrazol-4-yl)-1H-pyrazolo[4,3-c]pyridine] |
| < 100 nM | < 100 nM | < 100 nM | COc1cc(OC)c(F)c(-c2cc3[nH]nc(-c4ccc5c(c4)CC(C(=O)N(C)C)O5)c3cn2)c1F (single isomer, unassigned) [Example 84, 5-[6-(2,6-Difluoro-3,5-dimethoxyphenyl)-1H-pyrazolo[4,3-c]pyridin-3-yl]-N,N-dimethyl-2,3-dihydro-1-benzofuran-2-carboxamide] |
| < 100 nM | < 100 nM | < 100 nM | COc1cc(OC)c(Cl)c(-c2cc3[nH]nc(-c4cnn(CC(=O)N5CCC(C#N)C5)c4)c3cn2)c1Cl (stereo not drawn) [Example 47, 1-({4-[6-(2,6-Dichloro-3,5-dimethoxyphenyl)-1H-pyrazolo[4,3-c]pyridin-3-yl]-1H-pyrazol-1-yl}acetyl)pyrrolidine-3-carbonitrile] |
| < 100 nM | < 100 nM | < 100 nM | COc1cc(OC)c(Cl)c(-c2ncc3c(-c4cnn(C(C)C#N)c4)n[nH]c3n2)c1Cl (stereo not drawn) [Example 73, 2-{4-[6-(2,6-Dichloro-3,5-dimethoxyphenyl)-1H-pyrazolo[3,4-d]pyrimidin-3-yl]-1H-pyrazol-1-yl}propanenitrile] |

More lines, now with the values behind:

| Structure (SMILES) | IC50 (FGFR1) | IC50 (FGFR2) | IC50 (FGFR3) |
| --- | --- | --- | --- |
| COc1cc(OC)c(F)c(-c2ncc3c(-c4ccc5c(c4)CCNC5=O)n[nH]c3n2)c1F [Example 12, 6-[6-(2,6-Difluoro-3,5-dimethoxyphenyl)-1H-pyrazolo[3,4-d]pyrimidin-3-yl]-3,4-dihydroisoquinolin-1(2H)-one] | < 100 nM | < 100 nM | < 100 nM |
| COc1cc(OC)c(F)c(-c2cc3[nH]nc(-c4cc5c(cc4F)C(=O)N(C(C)C)C5)c3cn2)c1F [Example 65, 5-[6-(2,6-Difluoro-3,5-dimethoxyphenyl)-1H-pyrazolo[4,3-c]pyridin-3-yl]-6-fluoro-2-isopropylisoindolin-1-one] | < 100 nM | < 100 nM | < 100 nM |
| COc1cc(OC)c(F)c(-c2cc3[nH]nc(-c4ccnc(N5CCN(C)CC5)c4)c3cn2)c1F [Example 27, 6-(2,6-Difluoro-3,5-dimethoxyphenyl)-3-[2-(4-methylpiperazin-1-yl)pyridin-4-yl]-1H-pyrazolo[4,3-c]pyridine] | < 100 nM | < 100 nM | < 100 nM |
| CCN1Cc2cc(-c3n[nH]c4cc(-c5c(F)c(OC)cc(OC)c5F)ncc34)ccc2C1=O [Example 52, 5-[6-(2,6-Difluoro-3,5-dimethoxyphenyl)-1H-pyrazolo[4,3-c]pyridin-3-yl]-2-ethylisoindolin-1-one] | < 100 nM | < 100 nM | < 100 nM |
| COc1cc(OC)c(F)c(-c2cc3[nH]nc(-c4ccc(N5CCN(C)CC5)nc4)c3cn2)c1F [Example 26, 6-(2,6-Difluoro-3,5-dimethoxyphenyl)-3-[6-(4-methylpiperazin-1-yl)pyridin-3-yl]-1H-pyrazolo[4,3-c]pyridine] | < 100 nM | < 100 nM | < 100 nM |
| COc1cc(OC)c(Cl)c(-c2cc3[nH]nc(-c4cnn(CC(=O)N5CCN(C)CC5)c4)c3cn2)c1Cl [Example 41, 6-(2,6-Dichloro-3,5-dimethoxyphenyl)-3-{1-[2-(4-methylpiperazin-1-yl)-2-oxoethyl]-1H-pyrazol-4-yl}-1H-pyrazolo[4,3-c]pyridine] | < 100 nM | < 100 nM | < 100 nM |
| COc1cc(OC)c(F)c(-c2cc3[nH]nc(-c4ccc5c(c4)CN([C@H]4CC[C@H](O)CC4)C5=O)c3cn2)c1F [Example 62, 5-[6-(2,6-Difluoro-3,5-dimethoxyphenyl)-1H-pyrazolo[4,3-c]pyridin-3-yl]-2-(trans-4-hydroxycyclohexyl)isoindolin-1-one] | < 100 nM | < 100 nM | < 100 nM |
| COc1cc(OC)c(F)c(-c2cc3[nH]nc(-c4ccc5c(c4)CN(CCC4CCCN4C)C5=O)c3cn2)c1F (stereo not drawn) [Example 68, 5-[6-(2,6-Difluoro-3,5-dimethoxyphenyl)-1H-pyrazolo[4,3-c]pyridin-3-yl]-2-[2-(1-methylpyrrolidin-2-yl)ethyl]isoindolin-1-one] | < 100 nM | < 100 nM | < 100 nM |
| COc1cc(OC)c(F)c(-c2cc3[nH]nc(-c4ccc5c(c4)CC(C(=O)N(C)C)O5)c3cn2)c1F (single isomer, unassigned) [Example 83, 5-[6-(2,6-Difluoro-3,5-dimethoxyphenyl)-1H-pyrazolo[4,3-c]pyridin-3-yl]-N,N-dimethyl-2,3-dihydro-1-benzofuran-2-carboxamide] | < 100 nM | < 100 nM | < 100 nM |
| COc1cc(OC)c(Cl)c(-c2ncc3c(-c4ccc5c(c4)CCNC5=O)n[nH]c3n2)c1Cl [Example 8, 6-[6-(2,6-Dichloro-3,5-dimethoxyphenyl)-1H-pyrazolo[3,4-d]pyrimidin-3-yl]-3,4-dihydroisoquinolin-1(2H)-one] | < 100 nM | < 100 nM | < 100 nM |
| CCN1CCc2cc(-c3n[nH]c4nc(-c5c(Cl)c(OC)cc(OC)c5Cl)ncc34)ccc2C1=O [Example 10, 6-[6-(2,6-Dichloro-3,5-dimethoxyphenyl)-1H-pyrazolo[3,4-d]pyrimidin-3-yl]-2-ethyl-3,4-dihydroisoquinolin-1(2H)-one] | < 100 nM | < 100 nM | < 100 nM |
